Patent US11420940B2, “4-carboxamido-isoindolinone derivatives as selective parp-1 inhibitors” (NERVIANO MEDICAL SCIENCES S.r.l, priority 2012, dated 2022)

Assays:
[1] = tested on: BRCA-mutated breast, ovarian and prostate cancer; conditions: 19 patients with BRCA mutations and breast; cited from earlier work
[2] = Pharmacokinetics and oral bioavailability in the mouse; format: in vivo; conditions: 10 mg/kg, oral vs IV dose-normalized AUC
[3] = tested on: Capan-1 human pancreatic cancer tumors; test: In vivo efficacy as single agent, Capan-1 BRCA-2 mutated mouse model; conditions: 75 mg/kg oral, daily (schedule 1-8 or 1-10)
Description: Balb, athymic Nu/Nu male mice, from Harlan (Italy), were maintained in agreement with the European Communities Council Directive no. 86/609/EEC concerning the protection of animals used for experimental or other scientific purposes, in cages with paper filter cover, food and bedding sterilized and acidified water. Fragments of Capan-1 human pancreatic cancer tumors were implanted subcutaneously. […] Each group included seven animals. The treatment started one day after randomization. Compound of formula (I) was administered by oral route as a methocel suspension at the indicated doses and times. Tumor dimension was measured regularly by calipers during the experiments and tumor mass was calculated as described in Simeoni M. et al., Cancer Res 64, 1094-1101 (2004).

F on AUC [2] | Structure (SMILES) | objective response rate [1] | Max TGI (%) [3]
 | O=C(c1cc(Cc2n[nH]c(=O)c3ccccc23)ccc1F)N1CCN(C(=O)C2CC2)CC1 [Olaparib] | 47% | 
37% | NC(=O)c1cccc2c1C(=O)N(C1CCN(Cc3ccc[nH]3)CC1)C2 [(16), 3-oxo-2-[1-(1H-pyrrol-2-ylmethyl)-piperidin-4-yl]-2,3-dihydro-1H-isoindole-4-carboxylic acid amide] |  | 
30% | NC(=O)c1cccc2c1C(=O)N(CCN1CCc3ccccc3C1)C2 [(3), 2-[2-(3,4-dihydro-1H-isoquinolin-2-yl)-ethyl]-3-oxo-2,3-dihydro-1H-isoindole-4-carboxylic acid amide] |  | 
57% | NC(=O)c1cccc2c1C(=O)N(C1CCN(Cc3ccoc3)CC1)C2 [(14), 2-(1-furan-3-ylmethyl-piperidin-4-yl)-3-oxo-2,3-dihydro-1H-isoindole-4-carboxylic acid amide] |  | 

Structure (SMILES) | F on AUC [2] | objective response rate [1] | Max TGI (%) [3]
NC(=O)c1cccc2c1C(=O)N(C1CCN(Cc3ccccn3)CC1)C2 [(15), 3-oxo-2-(1-pyridin-2-ylmethyl-piperidin-4-yl)-2,3-dihydro-1H-isoindole-4-carboxylic acid amide] | 68% |  | 54%
NC(=O)c1cccc2c1C(=O)N(C1CCN(C3CCCCC3)CC1)C2 [(11), 2-(1-cyclohexyl-piperidin-4-yl)-3-oxo-2,3-dihydro-1H-isoindole-4-carboxylic acid amide] | 100% |  | 42%
